Laboratory results reported in patent US20100087477A1, “SELECTIVE GLYCOSIDASE INHIBITORS” (priority 2006, published 2010).
Where two headings read alike, the source gives them in different places.

What was measured:
[1] = biological target: mixture of the human placental hexosaminidases HexA/HexB; assay: Steady state kinetics of hexosaminidases A and B with 4MU-GlcNAc; type: biochemical
[2] = biological target: bacterial O-GlcNAcase (bOGA) (NagJ from Clostridium perfringens) (Clostridium perfringens, UniProt Q8XL08); assay: biochemical; set-up: Ratio a/b: reference not given here
HEK 293 cells = assay: Immunoblot: O-GlcNAc levels in treated HEK 293 cells; type: cell-based, human; details: FIG. 4B
human OGA (hOGA) = biological target: T1, human OGA (hOGA) (Homo sapiens, UniProt O60502); assay: Inhibition of human OGA (hOGA), methodology similar to bOGA; type: biochemical
T1 sequence (O60502 1-916): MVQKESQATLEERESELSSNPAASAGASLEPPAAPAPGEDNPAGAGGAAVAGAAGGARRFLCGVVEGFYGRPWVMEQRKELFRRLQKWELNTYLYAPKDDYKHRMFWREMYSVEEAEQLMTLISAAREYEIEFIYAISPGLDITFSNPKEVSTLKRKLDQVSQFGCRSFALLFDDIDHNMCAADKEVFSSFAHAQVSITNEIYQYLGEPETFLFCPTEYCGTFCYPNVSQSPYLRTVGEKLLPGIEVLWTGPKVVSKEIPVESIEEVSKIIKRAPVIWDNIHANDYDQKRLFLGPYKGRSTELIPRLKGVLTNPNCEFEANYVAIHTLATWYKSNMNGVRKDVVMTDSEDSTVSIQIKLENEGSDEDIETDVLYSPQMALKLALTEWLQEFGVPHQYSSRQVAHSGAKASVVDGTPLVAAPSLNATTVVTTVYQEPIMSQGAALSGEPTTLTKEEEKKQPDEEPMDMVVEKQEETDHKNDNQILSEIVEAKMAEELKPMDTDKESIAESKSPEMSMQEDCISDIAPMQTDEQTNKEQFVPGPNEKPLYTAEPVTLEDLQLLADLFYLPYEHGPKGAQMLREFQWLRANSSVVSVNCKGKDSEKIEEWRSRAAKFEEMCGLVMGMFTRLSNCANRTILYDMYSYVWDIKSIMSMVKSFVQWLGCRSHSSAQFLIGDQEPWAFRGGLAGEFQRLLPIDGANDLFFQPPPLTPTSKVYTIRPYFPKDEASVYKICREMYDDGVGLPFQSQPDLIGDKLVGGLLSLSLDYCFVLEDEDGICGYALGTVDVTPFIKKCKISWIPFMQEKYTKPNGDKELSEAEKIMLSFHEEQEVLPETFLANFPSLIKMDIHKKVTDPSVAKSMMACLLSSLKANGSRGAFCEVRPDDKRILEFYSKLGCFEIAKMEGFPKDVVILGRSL

bOGA = bOGA (Clostridium perfringens, UniProt Q8XL08); type: biochemical
OGA = biological target: T2, OGA (Homo sapiens, UniProt O60502); details: background, literature; cited from earlier work
T2 sequence (O60502 1-916): T1 sequence (O60502 1-916)

[3] = test system: human lysosomal hexosaminidases HexA and HexB; details: background, literature; cited from earlier work
[4] = read-out: Ki values (in M) a) hexosaminidases

Sequence of bacterial O-GlcNAcase (bOGA) (NagJ from Clostridium perfringens) (Q8XL08 31-1001 limits assumed): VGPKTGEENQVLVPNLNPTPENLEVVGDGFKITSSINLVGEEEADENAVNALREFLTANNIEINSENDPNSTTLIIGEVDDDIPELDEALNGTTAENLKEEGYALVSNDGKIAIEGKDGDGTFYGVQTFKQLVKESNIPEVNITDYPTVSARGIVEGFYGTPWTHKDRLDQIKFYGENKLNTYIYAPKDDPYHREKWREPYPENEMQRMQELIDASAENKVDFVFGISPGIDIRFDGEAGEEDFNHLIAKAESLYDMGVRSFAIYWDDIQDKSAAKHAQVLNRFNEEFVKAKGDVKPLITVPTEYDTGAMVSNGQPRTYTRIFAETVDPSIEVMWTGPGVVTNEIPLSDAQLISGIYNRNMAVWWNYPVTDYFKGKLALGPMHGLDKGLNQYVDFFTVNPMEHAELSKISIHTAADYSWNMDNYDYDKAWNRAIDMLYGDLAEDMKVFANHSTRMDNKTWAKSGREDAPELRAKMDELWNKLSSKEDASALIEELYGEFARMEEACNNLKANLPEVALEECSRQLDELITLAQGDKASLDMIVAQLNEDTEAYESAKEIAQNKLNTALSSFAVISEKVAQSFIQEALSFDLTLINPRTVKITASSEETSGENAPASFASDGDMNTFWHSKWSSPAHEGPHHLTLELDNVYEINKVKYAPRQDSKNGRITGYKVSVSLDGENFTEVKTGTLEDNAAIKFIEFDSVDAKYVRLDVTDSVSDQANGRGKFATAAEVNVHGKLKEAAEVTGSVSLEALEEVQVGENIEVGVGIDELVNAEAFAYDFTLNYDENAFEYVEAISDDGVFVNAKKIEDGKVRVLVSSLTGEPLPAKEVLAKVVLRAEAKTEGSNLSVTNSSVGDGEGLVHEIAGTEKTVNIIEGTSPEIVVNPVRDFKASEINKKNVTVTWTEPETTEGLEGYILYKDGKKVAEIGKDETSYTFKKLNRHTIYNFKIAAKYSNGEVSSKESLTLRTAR
Sequence of bOGA (Q8XL08 31-1001 limits assumed): as above

SMILES | Ki [2] | Ratio a/b [2] | inhibition of OGA (in words) (OGA) | Ki [1, 4] | also measured
CC(C)C(=O)NC1c2nc(CCc3ccccc3)cn2C(CO)[C@@H](O)C1O (stereo partly drawn) [Compound II] | 0.0046 ± 0.0002 nM | 108000 |  |  | Ki ([1]; HexA/HexB mixture, read-out: Ki values (in M) a) hexosaminidases): 500 nM; Ki ([1]; placental hexosaminidases, 0-400 nM inhibitor, FIG. 3, read-out: Ki): 520 ± 70 nM; raising O-GlcNAc levels (HEK 293 cells): more efficient at raising O-GlcNAc levels than PUGNAc; inhibition of hOGA (in words) (human OGA (hOGA)): active against human OGA; IC50 (human OGA (hOGA); hOGA, FIG. 5): 8 nM; inhibition of hOGA (in words) (human OGA (hOGA); listed as GlcNacstain): more potent inhibitor than PUGNac; activity in inhibiting bOGA from removing O-GlcNAc from proteins (bOGA): more active than PUGNAc
CC(=O)N[C@H]1/C(=N/OC(=O)Nc2ccccc2)O[C@H](CO)[C@@H](O)[C@@H]1O [PUGNAc, O-(2-acetamido-2-deoxy-D-glucopyrano-sylidene)amino-N-phenylcarbamate] |  |  | nanomolar inhibitor |  | inhibition of HexA and HexB (in words) [3]: potent inhibitor
COC(=O)Cc1cn2c(n1)C(NC(C)=O)[C@@H](O)[C@H](O)C2CO (stereo partly drawn) [V, reference compound] | 0.003 nM | 2500 |  | 7.5 nM | 
CCC(=O)NC1c2nc(CCc3ccccc3)cn2C(CO)[C@@H](O)[C@@H]1O (stereo partly drawn) [Compound IV] | 0.011 nM | 440 |  | 4.8 nM | 
CC(=O)NC1c2nc(CCc3ccccc3)cn2C(CO)[C@@H](O)[C@@H]1O (stereo partly drawn) [Compound III] | 0.0078 nM | 256 |  | 2 nM | 
CC(=O)NC1c2nc(C(=O)Nc3ccccc3)cn2C(CO)[C@@H](O)C1O (stereo partly drawn) [A] |  |  | only acts at the micromolar level |  | 
